From patent US20250346592A1 (Celgene Corporation, priority 2022, published 2025)

Biological target: hPAD4 enzyme (Homo sapiens (Human), UniProt Q9UM07)
Test: RFMS1 assay (RapidFire mass spectrometry, BAEE substrate)
Format: biochemical
Details: 5 nM hPAD4, 250 μM BAEE, 30 min preincubation at 37° C., 90 min reaction; read-out: RFMS 1 IC50
Experimental: Compounds were solubilized in 100% DMSO to achieve a 10 mM compound concentration. Compound stock solutions were stored at RT. A series of dilutions were prepared in DMSO and mixed 8 times with 20 μL mixing volume. Final top concentration of compound in the assay is 50 μM. Final assay conditions were as follows: • Reaction volume: 26 μl • Assay buffer: 25 mM hepes, pH 7.5, 5 mM NaCl, 1 mM DTT, 0.2 mg/ml BSA, 0.01% CHAPS, 50 µM Calcium, and 5 μM TPEN • Final concentrations: 5 nM hPAD4 enzyme, 250 µM BAEE, and 0.5% DMSO • Total incubation time: 30 mins compound and enzyme preincubation at 37° C., 90 min enzyme/substrate reaction, 30 min reaction with phenyl glyoxal at 37° C. • Stop solution: 40 μl 5% TCA in ACN • 0.13 μL of compound solution was added to 13 μL of 10 nM PAD4 in assay buffer. After […] min 13 μl of 500 µM of BAEE was added in 25 mM hepes, pH 7.5, 5 mM NaCl, 1 mM DTT, 0.2 mg/ml BSA, 0.01% CHAPS, 50 μM Calcium, 5 μM TPEN was added and the reaction incubated for 90 min at 37° C. The enzymatic reaction was quenched by addition of 15 μl of 6.1N TCA, 100% Final Concentration is 20%, 35 μl of 8.5 mM phenyl glyoxal (final concentration 4 mM) is then added and the reaction is incubated for 30 min at 37° C.
After 30 minutes the plates are spun down to remove all precipitate. The enzyme reaction was quenched with an equal volume of methanol containing internal standard (modified citrulline). Samples were loaded onto the Rapid Fire RF300 system (Agilent) wherein they were first sipped for 1000 ms and then directly loaded to a C18 separations cartridge using a mixture of acetonitrile containing 0.01% formic acid for 3000 ms desalting. The flow rate of the mobile phase was 1.5 ml/min. Once the samples were eluted from the cartridge, a mobile phase of acetonitrile containing 0.01% formic acid was used to move the samples into the mass spectrometer for 4000 ms at a flow rate of 1.25 ml/min/Sciex API5500 triple quadrupole mass spectrometer (Applied Biosystems) equipped with ESI was used to analyze the peptidyl citrulline and internal standard ions.
MRM transition of product and internal standard were monitored at m/z 424.5 to 350.4 and m/z 293 to 247 respectively. The dwell time for each transition was set at 200 ms, and the ESI voltage was used at 5500 with a source temperature of 400° C. Extracted ion peaks for each transition were integrated using the Rapid Fire Integrator software. Peak area of analyte was normalized with internal standard.).
Compounds having an activity designated as “A” provided an IC50≤10 nM; compounds having an activity designated as “B” provided an IC50 11-100 nM; compounds having an activity designated as “C” provided an IC50 101-500 nM; compounds having an activity designated as “D” provided an IC50 501-1000 nM; compounds having an activity designated as “E” provided an IC50>1000 nM.

Sequence of hPAD4 enzyme (Q9UM07 whole entry): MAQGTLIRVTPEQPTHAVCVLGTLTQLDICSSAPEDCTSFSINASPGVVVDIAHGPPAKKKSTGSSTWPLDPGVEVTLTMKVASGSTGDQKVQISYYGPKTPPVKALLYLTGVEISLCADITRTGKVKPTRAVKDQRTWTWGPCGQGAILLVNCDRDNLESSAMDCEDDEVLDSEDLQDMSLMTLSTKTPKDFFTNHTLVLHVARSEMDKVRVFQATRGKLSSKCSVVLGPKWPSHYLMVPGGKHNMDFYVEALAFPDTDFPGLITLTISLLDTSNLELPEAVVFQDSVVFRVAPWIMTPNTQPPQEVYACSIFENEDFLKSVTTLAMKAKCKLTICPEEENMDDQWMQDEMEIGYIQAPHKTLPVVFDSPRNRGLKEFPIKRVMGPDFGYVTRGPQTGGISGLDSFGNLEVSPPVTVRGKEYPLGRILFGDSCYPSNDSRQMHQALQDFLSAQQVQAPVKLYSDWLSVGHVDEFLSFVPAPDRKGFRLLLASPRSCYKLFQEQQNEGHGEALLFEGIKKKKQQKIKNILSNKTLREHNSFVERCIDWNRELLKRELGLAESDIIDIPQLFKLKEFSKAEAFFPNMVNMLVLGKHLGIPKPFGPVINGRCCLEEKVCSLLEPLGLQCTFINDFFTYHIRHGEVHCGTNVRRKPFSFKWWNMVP

Cn1c(-c2cc3ccc(-c4cccc(O)c4F)nc3n2CC2CC2)nc2cc3c(cc21)CCN(C[C@H]1COCCN1)C3=O [Example 248, (S)-2-(1-(cyclopropylmethyl)-6-(2-fluoro-3-hydroxyphenyl)-1H-pyrrolo[2,3-b]pyridin-2-yl)-1-methyl-6-(morpholin-3-ylmethyl)-1,6,7,8-tetrahydro-5H-imidazo[4,5-g]isoquinolin-5-one]
IC50: 501 to 1000 nM

Cc1cc(N2CC(C)(C)OC2=O)ccc1-c1ccc2cc(-c3nc4cc5c(cc4n3C)CCN(C[C@H]3COCCN3)C5=O)n(CC3CC3)c2n1 [Example 247, (S)-3-(4-(1-(cyclopropylmethyl)-2-(1-methyl-6-(morpholin-3-ylmethyl)-5-oxo-5,6,7,8-tetrahydro-1H-imidazo[4,5-g]isoquinolin-2-yl)-1H-pyrrolo[2,3-b]pyridin-6-yl)-3-methylphenyl)-5,5-dimethyloxazolidin-2-one]
IC50: 11 to 100 nM

CC(=O)N1CCC(c2cccc3cc(-c4nc5cc6c(cc5n4C)CCN(C[C@H]4COCCN4)C6=O)n(CC4CC4)c23)CC1 [Example 243, (S)-2-(7-(1-acetylpiperidin-4-yl)-1-(cyclopropylmethyl)-1H-indol-2-yl)-1-methyl-6-(morpholin-3-ylmethyl)-1,6,7,8-tetrahydro-5H-imidazo[4,5-g]isoquinolin-5-one]
IC50: 11 to 100 nM

COC1CCN(c2ccc3cc(-c4nc5cc6c(cc5n4C)CCN(C[C@H]4COCCN4)C6=O)n(CC4CC4)c3c2)CC1 [Example 249, (S)-2-(1-(cyclopropylmethyl)-6-(4-methoxypiperidin-1-yl)-1H-indol-2-yl)-1-methyl-6-(morpholin-3-ylmethyl)-1,6,7,8-tetrahydro-5H-imidazo[4,5-g]isoquinolin-5-one]
IC50: 501 to 1000 nM

CCc1nc(N2CCOC2=O)ccc1-c1ccc2cc(-c3nc4cc5c(cc4n3C)CCN(C[C@H](N)CF)C5=O)n(CC3CC3)c2n1 [Example 61, (S)-3-(5-(2-(6-(2-amino-3-fluoropropyl)-1-methyl-5-oxo-5,6,7,8-tetrahydro-1H-imidazo[4,5-g]isoquinolin-2-yl)-1-(cyclopropylmethyl)-1H-pyrrolo[2,3-b]pyridin-6-yl)-6-ethylpyridin-2-yl)oxazolidin-2-one]
IC50: 11 to 100 nM

Cc1cc(C(N)=O)c(F)cc1-c1ccc2cc(-c3nc4cc5c(cc4n3C)CCN(C[C@H]3COCCN3)C5=O)n(CC3CC3)c2n1 [Example 245, (S)-4-(1-(cyclopropylmethyl)-2-(1-methyl-6-(morpholin-3-ylmethyl)-5-oxo-5,6,7,8-tetrahydro-1H-imidazo[4,5-g]isoquinolin-2-yl)-1H-pyrrolo[2,3-b]pyridin-6-yl)-2-fluoro-5-methylbenzamide]
IC50: 101 to 500 nM

COc1cccc2cc(-c3nc4cc5c(c(F)c4n3C)CCN(C[C@H]3COCCN3)C5=O)n(CC3CC3)c12 [Example 240, (S)-2-(1-(cyclopropylmethyl)-7-methoxy-1H-indol-2-yl)-9-fluoro-1-methyl-6-(morpholin-3-ylmethyl)-1,6,7,8-tetrahydro-5H-imidazo[4,5-g]isoquinolin-5-one]
IC50: 101 to 500 nM

COc1cccc2cc(-c3nc4cc5c(cc4n3C)CCN(C[C@H]3COCCN3)C5=O)n(CCOC(F)F)c12 [Example 233, (S)-2-(1-(2-(difluoromethoxy)ethyl)-7-methoxy-1H-indol-2-yl)-1-methyl-6-(morpholin-3-ylmethyl)-1,6,7,8-tetrahydro-5H-imidazo[4,5-g]isoquinolin-5-one]
IC50: 101 to 500 nM

Cc1cc(N2CC(C)(C)OC2=O)ccc1-c1ccc2cc(-c3nc4cc5c(cc4n3C)CCN(C[C@H](N)CF)C5=O)n(CC3CC3)c2n1 [Example 58, (S)-3-(4-(2-(6-(2-amino-3-fluoropropyl)-1-methyl-5-oxo-5,6,7,8-tetrahydro-1H-imidazo[4,5-g]isoquinolin-2-yl)-1-(cyclopropylmethyl)-1H-pyrrolo[2,3-b]pyridin-6-yl)-3-methylphenyl)-5,5-dimethyloxazolidin-2-one]
IC50: 11 to 100 nM

C[C@H](COc1cccc2cc(-c3nc4cc5c(cc4n3C)CCN(C[C@H](N)CF)C5=O)n(CC3CC3)c12)n1cnc(F)c1 [Example 217, 6-((S)-2-amino-3-fluoropropyl)-2-(1-(cyclopropylmethyl)-7-((R)-2-(4-fluoro-1H-imidazol-1-yl)propoxy)-1H-indol-2-yl)-1-methyl-1,6,7,8-tetrahydro-5H-imidazo[4,5-g]isoquinolin-5-one]
IC50: ≤ 10 nM

COCC(=O)N1CCC(c2cccc3cc(-c4nc5cc6c(cc5n4C)CCN(C[C@H]4COCCN4)C6=O)n(CC4CC4)c23)CC1 [Example 244, (S)-2-(1-(cyclopropylmethyl)-7-(1-(2-methoxyacetyl)piperidin-4-yl)-1H-indol-2-yl)-1-methyl-6-(morpholin-3-ylmethyl)-1,6,7,8-tetrahydro-5H-imidazo[4,5-g]isoquinolin-5-one]
IC50: 11 to 100 nM

C[C@H](COc1cccc2cc(-c3nc4cc5c(cc4n3C)CCN(C[C@H]3COCCN3)C5=O)n(CC3CC3)c12)n1cnc(F)c1 [Example 235, 2-(1-(cyclopropylmethyl)-7-((R)-2-(4-fluoro-1H-imidazol-1-yl)propoxy)-1H-indol-2-yl)-1-methyl-6-(((S)-morpholin-3-yl)methyl)-1,6,7,8-tetrahydro-5H-imidazo[4,5-g]isoquinolin-5-one]
IC50: ≤ 10 nM

C[C@H](COc1cccc2cc(-c3nc4cc5c(c(F)c4n3C)CCN(C[C@H]3COCCN3)C5=O)n(CC3CC3)c12)n1cnc(F)c1 [Example 242, 2-(1-(cyclopropylmethyl)-7-((R)-2-(4-fluoro-1H-imidazol-1-yl)propoxy)-1H-indol-2-yl)-9-fluoro-1-methyl-6-(((S)-morpholin-3-yl)methyl)-1,6,7,8-tetrahydro-5H-imidazo[4,5-g]isoquinolin-5-one]
IC50: ≤ 10 nM

Cc1cc(N2CCCS2(=O)=O)ccc1-c1ccc2cc(-c3nc4cc5c(cc4n3C)CCN(C[C@H](N)CF)C5=O)n(CC3CC3)c2n1 [Example 57, (S)-6-(2-amino-3-fluoropropyl)-2-(1-(cyclopropylmethyl)-6-(4-(1,1-dioxidoisothiazolidin-2-yl)-2-methylphenyl)-1H-pyrrolo[2,3-b]pyridin-2-yl)-1-methyl-1,6,7,8-tetrahydro-5H-imidazo[4,5-g]isoquinolin-5-one]
IC50: 11 to 100 nM

Cn1c(-c2cc3cccc(OC(F)Cn4ccnc4)c3n2CC2CC2)nc2cc3c(cc21)CCN(C[C@H](N)CF)C3=O (single isomer, unassigned) [Example 226a]
IC50: ≤ 10 nM

COc1cccc2cc(-c3nc4cc5c(cc4n3C)CCN(C[C@H](N)CF)C5=O)n(CCOC(F)F)c12 [Example 135, (S)-6-(2-amino-3-fluoropropyl)-2-(1-(2-(difluoromethoxy)ethyl)-7-methoxy-1H-indol-2-yl)-1-methyl-1,6,7,8-tetrahydro-5H-imidazo[4,5-g]isoquinolin-5-one]
IC50: 11 to 100 nM

C[C@H](COc1cccc2cc(-c3nc4cc5c(cc4n3C)CCN(C[C@@H](C)N)C5=O)n(CC3CC3)c12)n1cnc(F)c1 [Example 230, 6-((R)-2-aminopropyl)-2-(1-(cyclopropylmethyl)-7-((R)-2-(4-fluoro-1H-imidazol-1-yl)propoxy)-1H-indol-2-yl)-1-methyl-1,6,7,8-tetrahydro-5H-imidazo[4,5-g]isoquinolin-5-one]
IC50: ≤ 10 nM

Cc1cc(N2CCCS2(=O)=O)ccc1-c1ccc2cc(-c3nc4cc5c(cc4n3C)CCN(C[C@H]3COCCN3)C5=O)n(CC3CC3)c2n1 [Example 246, (S)-2-(1-(cyclopropylmethyl)-6-(4-(1,1-dioxidoisothiazolidin-2-yl)-2-methylphenyl)-1H-pyrrolo[2,3-b]pyridin-2-yl)-1-methyl-6-(morpholin-3-ylmethyl)-1,6,7,8-tetrahydro-5H-imidazo[4,5-g]isoquinolin-5-one]
IC50: 11 to 100 nM

C[C@H](COc1cccc2cc(-c3nc4cc5c(c(F)c4n3C)CCN(C[C@H](N)CF)C5=O)n(CC3CC3)c12)n1cnc(F)c1 [Example 241, 6-((S)-2-amino-3-fluoropropyl)-2-(1-(cyclopropylmethyl)-7-((R)-2-(4-fluoro-1H-imidazol-1-yl)propoxy)-1H-indol-2-yl)-9-fluoro-1-methyl-1,6,7,8-tetrahydro-5H-imidazo[4,5-g]isoquinolin-5-one]
IC50: ≤ 10 nM
